Measured values as given in US6294564A, “Benzimidazoles and benzoxazoles” (Byk Gulden Lomberg Chemische Fabrik GmbH, priority 1998, dated 2001).

Tested on: PDE4
Experiment: Inhibition of PDE4 Activity (activity test according to Bauer and Schwabe adapted to microtitre plates)
Type: biochemical
Conditions: Inhibition of the PDE4 Activity; inhibitory concentration as -log IC50 (mol/l)

Row | SMILES | -log IC50
1 | COc1ccc(-c2nc3cc(C(N)=O)ccc3o2)c2c1OC1(CCOCC1)C2 [compound 7, 2-(2,3-Dihydro-7-methoxybenzofuran-2-spiro-4'-tetrahydropyran-4-yl)benzoxazole-5-carboxamide] | 6.80
2 | COc1ccc(-c2nc3cc(C(=O)O)ccc3o2)c2c1OC1(CCCC1)C2 [compound 3, 2-(2,3-Dihydro-7-methoxybenzofuran-2-spiro-1'-cyclopentan-4-yl)benzoxazole-5-carboxylic acid] | 7.65
3 | COc1ccc(-c2nc3cc(C(=O)O)ccc3[nH]2)c2c1OC1(CCCC1)C2 [compound 1, 2-(2,3-Dihydro-7-methoxybenzofuran-2-spiro-1'-cyclopentan-4-yl)benzimidazole-5-carboxylic acid] | 7.87
4 | COc1ccc(-c2nc3cc(C(=O)O)ccc3o2)c2c1OC1(CCOCC1)C2 [compound 6, 2-(2,3-Dihydro-7-methoxybenzofuran-2-spiro-4'-tetrahydropyran-4-yl)benzoxazole-5-carboxylic acid] | 7.05
5 | COc1ccc(-c2nc3cc(C(N)=O)ccc3[nH]2)c2c1OC1(CCCC1)C2 [compound 2, 2-(2,3-Dihydro-7-methoxybenzofuran-2-spiro-1'-cyclopentan-4-yl)benzimidazole-5-carboxamide] | 7.69

Now from value to compound:

Row | -log IC50 | SMILES
6 | 6.85 | COc1ccc(-c2nc3ccc(C(=O)O)cc3o2)c2c1OC1(CCOCC1)C2 [compound 11, 2-(2,3-Dihydro-7-methoxybenzofuran-2-spiro-4'-tetrahydropyran-4-yl) benzoxazole-6-carboxylic acid]
7 | 6.42 | COc1ccc(-c2nc3ccc(C(N)=O)cc3o2)c2c1OC1(CCOCC1)C2 [compound 12, 2-(2,3-Dihydro-7-methoxybenzofuran-2-spiro-4'-tetrahydropyran-4-yl)benzoxazole-6-carboxamide]
8 | 6.90 | COc1ccc(-c2nc3ccc(C(=O)OCCN4CCOCC4)cc3o2)c2c1OC1(CCCC1)C2 [compound 9, 2-morpholin-4-ylethyl 2-(2,3-dihydro-7-methoxybenzofuran-2-spiro-1'-cyclopentan4-yl)-benzoxazole-6-carboxylate]
9 | 8.21 | COc1ccc(-c2nc3ccc(C(=O)O)cc3o2)c2c1OC1(CCCC1)C2 [compound 8, 2-(2,3-Dihydro-7-methoxybenzofuran-2-spiro-1'-cyclopentan-4-yl)benzoxazole-6-carboxylic acid]
